Converted amounts (≈) assume the structure as drawn. Where a SMILES comes first, the peptide text is derived from it. Bridges are numbered along the chain shown (N, C = ends).
Experiments:
Micrococcus luteus [1] = test: Antimicrobial activity against Micrococcus luteus after 24 hrs by microdilution technique in absence of NaCl; format: functional
Staphylococcus aureus [2] = test: Antimicrobial activity against Staphylococcus aureus after 24 hrs by microdilution technique in absence of NaCl; format: functional
Escherichia coli [3] = test: Antimicrobial activity against Escherichia coli after 24 hrs by microdilution technique in absence of NaCl; format: functional
Pseudomonas aeruginosa [4] = test: Antimicrobial activity against Pseudomonas aeruginosa after 24 hrs by microdilution technique in absence of NaCl; format: functional
Erythrocyte = test: Hemolytic activity in human red blood cells after 1 hrs; format: functional
Micrococcus luteus [5] = test: Antimicrobial activity against Micrococcus luteus after 24 hrs by microdilution technique in high salt condition; format: functional
Staphylococcus aureus [6] = test: Antimicrobial activity against Staphylococcus aureus after 24 hrs by microdilution technique in high salt condition; format: functional
Escherichia coli [7] = test: Antimicrobial activity against Escherichia coli after 24 hrs by microdilution technique in high salt condition; format: functional
Pseudomonas aeruginosa [8] = test: Antimicrobial activity against Pseudomonas aeruginosa after 24 hrs by microdilution technique in high salt condition; format: functional
Candida albicans [9] = test: Antimicrobial activity against Candida albicans after 24 hrs by microdilution technique in high salt condition; format: functional
[10] = Effect on leakage from large unilamellar vesicles containing phosphatidylglycerol/phosphatidyl choline assessed as release of entrapped dye at 50 uM; format: physicochemical
Candida albicans [11] = test: Antimicrobial activity against Candida albicans after 24 hrs by microdilution technique in absence of NaCl; format: functional

| Compound | MIC (Micrococcus luteus [1]) [µg/mL] | MIC (Staphylococcus aureus [2]) [µg/mL] | MIC (Escherichia coli [3]) [µg/mL] | MIC (Pseudomonas aeruginosa [4]) [µg/mL] | MIC (Micrococcus luteus [5]) [µg/mL] | MIC (Staphylococcus aureus [6]) [µg/mL] | MIC (Escherichia coli [7]) [µg/mL] | MIC (Pseudomonas aeruginosa [8]) [µg/mL] | MIC (Candida albicans [9]) [µg/mL] | Activity [10] [%] | MIC (Candida albicans [11]) [µg/mL] | HC50 (Erythrocyte) [µg/mL] |
| --- | --- | --- | --- | --- | --- | --- | --- | --- | --- | --- | --- | --- |
| CC(C)C[C@H](NC(=O)[C@H](CS)NC(=O)[C@H](Cc1cnc[nH]1)NC(=O)[C@H](C)NC(=O)[C@H](C)NC(=O)[C@H](CS)NC(=O)[C@H](C)NC(=O)[C@H](C)NC(=O)[C@@H](N)CCCCN)C(=O)N[C@@H](Cc1c[nH]c2ccccc12)C(=O)N[C@@H](CCCNC(=N)N)C(N)=O (H-KAACAAHCLWR-NH2) [listing 1 of 2 here] | 25 | 50 | 50 | 100 | > 200 | > 200 | > 200 | > 200 | > 200 |  |  | >200 |
| CC(C)C[C@H](NC(=O)[C@@H]1CSSC[C@H](NC(=O)[C@H](C)NC(=O)[C@H](C)NC(=O)[C@@H](N)CC(=O)O)C(=O)N[C@@H](C)C(=O)N[C@@H](C)C(=O)N[C@@H](CCCCN)C(=O)N1)C(=O)N[C@@H](Cc1c[nH]c2ccccc12)C(=O)N[C@@H](CCCNC(=N)N)C(N)=O (H-DAACAAKCLWR-NH2; disulfide 4-8) | > 200 | > 200 | > 200 | > 200 | > 200 | > 200 | > 200 | > 200 | > 200 |  |  | >200 |
| CC(C)C[C@H](NC(=O)[C@H](CS)NC(=O)[C@H](CCCCN)NC(=O)[C@H](C)NC(=O)[C@H](C)NC(=O)[C@H](CS)NC(=O)[C@H](C)NC(=O)[C@H](C)NC(=O)[C@@H](N)CC(=O)O)C(=O)N[C@@H](Cc1c[nH]c2ccccc12)C(=O)N[C@@H](CCCNC(=N)N)C(N)=O (H-DAACAAKCLWR-NH2) | 200 (≈ 166 µM) | 200 (≈ 166 µM) | 200 (≈ 166 µM) | > 200 | > 200 | > 200 | > 200 | > 200 | > 200 |  |  | >200 |
| CC(C)C[C@H](NC(=O)[C@H](CS)NC(=O)[C@H](Cc1cnc[nH]1)NC(=O)[C@H](C)NC(=O)[C@H](C)NC(=O)[C@H](CS)NC(=O)[C@H](C)NC(=O)[C@H](C)NC(=O)[C@@H](N)CC(=O)O)C(=O)N[C@@H](Cc1c[nH]c2ccccc12)C(=O)N[C@@H](CCCNC(=N)N)C(N)=O (H-DAACAAHCLWR-NH2) | > 200 | > 200 | > 200 | > 200 | > 200 | > 200 | > 200 | > 200 | > 200 |  | > 200 | >200 |

Second part, led by results:

| MIC (Micrococcus luteus [1]) [µg/mL] | MIC (Staphylococcus aureus [2]) [µg/mL] | MIC (Escherichia coli [3]) [µg/mL] | MIC (Pseudomonas aeruginosa [4]) [µg/mL] | MIC (Micrococcus luteus [5]) [µg/mL] | MIC (Staphylococcus aureus [6]) [µg/mL] | MIC (Escherichia coli [7]) [µg/mL] | MIC (Pseudomonas aeruginosa [8]) [µg/mL] | MIC (Candida albicans [9]) [µg/mL] | Activity [10] [%] | MIC (Candida albicans [11]) [µg/mL] | Compound | HC50 (Erythrocyte) [µg/mL] |
| --- | --- | --- | --- | --- | --- | --- | --- | --- | --- | --- | --- | --- |
| 50 (≈ 41.1 µM) | 50 (≈ 41.1 µM) | 50 (≈ 41.1 µM) | > 200 | 200 | > 200 | 200 | > 200 | > 200 |  |  | CC(C)C[C@H](NC(=O)[C@@H]1CSSC[C@H](NC(=O)[C@H](C)NC(=O)[C@H](C)NC(=O)[C@@H](N)CCCCN)C(=O)N[C@@H](C)C(=O)N[C@@H](C)C(=O)N[C@@H](CCCCN)C(=O)N1)C(=O)N[C@@H](Cc1c[nH]c2ccccc12)C(=O)N[C@@H](CCCNC(=N)N)C(N)=O (H-KAACAAKCLWR-NH2; disulfide 4-8) | >200 |
| > 200 | > 200 | > 200 | > 200 | > 200 | > 200 | > 200 | > 200 | > 200 |  |  | CC(C)C[C@H](NC(=O)[C@@H]1CSSC[C@H](NC(=O)[C@H](C)NC(=O)[C@H](C)NC(=O)[C@@H](N)CC(=O)O)C(=O)N[C@@H](C)C(=O)N[C@@H](C)C(=O)N[C@@H](Cc2cnc[nH]2)C(=O)N1)C(=O)N[C@@H](Cc1c[nH]c2ccccc12)C(=O)N[C@@H](CCCNC(=N)N)C(N)=O (H-DAACAAHCLWR-NH2; disulfide 4-8) | >200 |
| 100 | 100 | > 200 | > 200 | 100 | 100 | > 200 | > 200 | > 200 | 20 |  | CC(C)C[C@H](NC(=O)[C@@H]1CSSC[C@H](NC(=O)[C@H](C)NC(=O)[C@H](C)NC(=O)[C@@H](N)CCCCN)C(=O)N[C@@H](C)C(=O)N[C@@H](C)C(=O)N[C@@H](Cc2cnc[nH]2)C(=O)N1)C(=O)N[C@@H](Cc1c[nH]c2ccccc12)C(=O)N[C@@H](CCCNC(=N)N)C(N)=O (H-KAACAAHCLWR-NH2; disulfide 4-8) | >200 |
|  |  |  |  |  |  |  |  |  | 70 |  | CC(C)C[C@H](NC(=O)[C@H](CS)NC(=O)[C@H](Cc1cnc[nH]1)NC(=O)[C@H](C)NC(=O)[C@H](C)NC(=O)[C@H](CS)NC(=O)[C@H](C)NC(=O)[C@H](C)NC(=O)[C@@H](N)CCCCN)C(=O)N[C@@H](Cc1c[nH]c2ccccc12)C(=O)N[C@@H](CCCNC(=N)N)C(N)=O (H-KAACAAHCLWR-NH2) [listing 2 of 2 here] |  |
| 25 (≈ 20.5 µM) | 50 (≈ 41 µM) | 50 (≈ 41 µM) | 100 (≈ 82 µM) | 200 | 100 | > 200 | > 200 | > 200 |  |  | CC(C)C[C@H](NC(=O)[C@H](CS)NC(=O)[C@H](CCCCN)NC(=O)[C@H](C)NC(=O)[C@H](C)NC(=O)[C@H](CS)NC(=O)[C@H](C)NC(=O)[C@H](C)NC(=O)[C@@H](N)CCCCN)C(=O)N[C@@H](Cc1c[nH]c2ccccc12)C(=O)N[C@@H](CCCNC(=N)N)C(N)=O (H-KAACAAKCLWR-NH2) | >200 |

— ChEMBL document CHEMBL1157136, “Design and synthesis of cyclic disulfide-bonded antibacterial peptides on the basis of the alpha helical domain of Tenecin 1, an insect defensin” (Bioorg Med Chem, 2008)
